A word on the pIC50: it is −log10 of the IC50, conventionally taken in molar units.

Molecules are shown by their SMILES. pIC50: −log10 of the molar value.

One test addresses DGKα (Homo sapiens (Human), UniProt P23743). Kind of test: In vitro DGKα inhibition assay (ADP-Glo). Format: biochemical. Particulars: His-tagged human recombinant enzyme, 0.1 nM DGKα, 50 μM ATP, 20 μM DLG, 90 minute incubation. The method, boiled down: (§1)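 His-tagged human DGKα (0.1 nM, 50 μM ATP) or DGKζ (0.4 nM, 30 μM ATP), each with 20 μM DLG, in Tris pH 7.5 buffer with CHAPS, Mg2+, Ca2+.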
Background: ADP-Glo turns the ADP formed in a reaction into a luminescent signal.

In the next test the target is DGKζ (Homo sapiens (Human), UniProt Q13574). Kind of test: In vitro DGKζ inhibition assay (ADP-Glo). Format: biochemical. The conditions noted are these: His-tagged human recombinant enzyme, 0.4 nM DGK, 30 μM ATP, 20 μM DLG, 90 minute incubation. The method, boiled down:
as §1

DGKζ, sequence (Q13574 whole entry): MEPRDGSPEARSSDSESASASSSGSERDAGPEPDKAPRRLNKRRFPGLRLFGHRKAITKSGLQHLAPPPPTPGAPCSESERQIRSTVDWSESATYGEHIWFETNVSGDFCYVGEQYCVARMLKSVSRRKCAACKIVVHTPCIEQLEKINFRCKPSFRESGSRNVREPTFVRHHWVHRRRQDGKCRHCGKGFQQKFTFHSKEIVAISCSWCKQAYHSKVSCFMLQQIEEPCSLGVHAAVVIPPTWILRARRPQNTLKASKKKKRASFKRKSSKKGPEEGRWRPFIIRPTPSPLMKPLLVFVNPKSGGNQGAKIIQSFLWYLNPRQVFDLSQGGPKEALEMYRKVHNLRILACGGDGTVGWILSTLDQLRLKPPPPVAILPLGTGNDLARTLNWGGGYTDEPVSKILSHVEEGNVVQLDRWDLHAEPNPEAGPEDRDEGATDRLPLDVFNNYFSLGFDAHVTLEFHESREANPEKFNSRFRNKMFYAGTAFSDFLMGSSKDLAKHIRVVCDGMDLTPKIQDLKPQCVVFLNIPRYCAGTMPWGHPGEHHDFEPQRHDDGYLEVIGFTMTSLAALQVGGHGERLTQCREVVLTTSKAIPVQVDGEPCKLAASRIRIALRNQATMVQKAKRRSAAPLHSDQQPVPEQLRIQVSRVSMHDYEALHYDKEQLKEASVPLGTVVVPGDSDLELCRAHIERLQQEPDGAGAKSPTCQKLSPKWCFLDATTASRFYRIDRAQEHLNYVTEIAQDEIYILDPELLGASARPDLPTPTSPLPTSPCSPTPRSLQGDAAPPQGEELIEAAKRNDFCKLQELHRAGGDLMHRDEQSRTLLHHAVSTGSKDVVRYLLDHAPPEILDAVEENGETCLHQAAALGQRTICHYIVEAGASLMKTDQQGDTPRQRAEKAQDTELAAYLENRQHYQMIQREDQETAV
DGKα, sequence (P23743 whole entry): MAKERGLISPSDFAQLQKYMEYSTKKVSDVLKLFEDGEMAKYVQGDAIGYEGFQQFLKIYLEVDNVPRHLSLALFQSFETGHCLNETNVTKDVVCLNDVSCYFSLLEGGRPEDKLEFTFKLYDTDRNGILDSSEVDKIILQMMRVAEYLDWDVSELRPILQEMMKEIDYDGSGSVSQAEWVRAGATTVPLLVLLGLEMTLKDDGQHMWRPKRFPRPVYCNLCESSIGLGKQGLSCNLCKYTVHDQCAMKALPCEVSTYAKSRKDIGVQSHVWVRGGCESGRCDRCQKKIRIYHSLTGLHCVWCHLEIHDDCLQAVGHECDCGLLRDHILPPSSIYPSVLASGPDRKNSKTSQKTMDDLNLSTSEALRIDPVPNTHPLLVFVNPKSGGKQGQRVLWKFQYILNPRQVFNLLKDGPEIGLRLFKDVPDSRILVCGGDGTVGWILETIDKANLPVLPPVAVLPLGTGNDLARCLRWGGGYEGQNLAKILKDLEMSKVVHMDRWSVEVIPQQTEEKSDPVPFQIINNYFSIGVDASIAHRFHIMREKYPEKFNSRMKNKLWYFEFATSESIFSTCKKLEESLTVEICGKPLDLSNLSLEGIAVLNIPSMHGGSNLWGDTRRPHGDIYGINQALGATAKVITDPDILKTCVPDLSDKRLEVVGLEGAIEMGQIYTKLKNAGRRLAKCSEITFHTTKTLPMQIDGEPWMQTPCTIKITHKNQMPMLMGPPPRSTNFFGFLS

As to `CC[C@@H]1CN(c2nc3nncn3c3c2ncn3CCN(C)C)[C@@H](C)CN1C(c1ccc(F)cc1)c1ccc(F)cc1` [Example 37, 2-(4-((2S,5R)-4-(Bis(4-fluorophenyl)methyl)-5-ethyl-2-methylpiperazin-1-yl)-1H-[1,2,4]triazolo[3,4-b]purin-1-yl)-N,N-dimethylethan-1-amine], the pIC50 on DGKα and at DGKζ was not below 7.70 each time.
Regarding `[2H]c1nc2c(N3C[C@@H](CC)N(C(c4ccc(F)cc4)c4ccc(F)cc4)C[C@@H]3C)nc3nncn3c2n1CCN(C)C` [Example 38, 2-(4-((2S,5R)-4-(Bis(4-fluorophenyl)methyl)-5-ethyl-2-methylpiperazin-1-yl)-1H-[1,2,4]triazolo[3,4-b]purin-1-yl-2-d)-N,N-dimethylethan-1-amine], the pIC50 at DGKα and on DGKζ was not below 7.70 each time.
Turning to `[2H]c1nc2c(N3C[C@@H](C)N(C(c4ccc(F)cc4)c4ccc(F)cc4)C[C@@H]3C)nc3nncn3c2n1CCN(C)C` [Example 34, 2-(4-((2S,5R)-4-(Bis(4-fluorophenyl)methyl)-2,5-dimethylpiperazin-1-yl)-1H-[1,2,4]triazolo[3,4-b]purin-1-yl-2-d)-N,N-dimethylethan-1-amine], the negative-log IC50 (pIC50) on DGKα and at DGKζ was not below 7.70 throughout.
`C[C@@H]1CN(c2nc3nncn3c3c2ncn3CCN(C)C)[C@@H](C)CN1C(c1ccc(F)c(Cl)c1)[C@H]1C[C@H](C(F)(F)F)C1` (stereo partly drawn) [Example 114, 2-(4-((2S,5R)-4-((3-chloro-4-fluorophenyl)((trans)-3-(trifluoromethyl)cyclobutyl)methyl)-2,5-dimethylpiperazin-1-yl)-1H-[1,2,4]triazolo[3,4-b]purin-1-yl)-N,N-dimethylethan-1-amine]: the negative logarithm of the IC50 (pIC50) on DGKα and on DGKζ was not below 7.70 each time.
For the compound `Cc1nc2c(N3C[C@@H](C)N([C@H](c4ccc(F)cc4)c4ccc(F)c(C(F)(F)F)n4)C[C@@H]3C)nc3nncn3c2n1C[C@@H]1CCCO1` (single isomer, unassigned) [Example 104], the negative logarithm of the IC50 (pIC50) at DGKα and on DGKζ was not below 7.70 throughout.
With `C[C@H]1CN(C(c2ccc(F)cc2)c2ccc(F)cc2)[C@H](CC#N)CN1c1nc2nncn2c2c1ncn2C` [Example 16, 2-((2R,5S)-1-(Bis(4-fluorophenyl)methyl)-5-methyl-4-(1-methyl-1H-[1,2,4]triazolo[3,4-b]purin-4-yl)piperazin-2-yl)acetonitrile], the pIC50 at DGKα and at DGKζ was not below 7.70 each time.
Turning to `Cc1nc2c(N3C[C@@H](C)N([C@H](c4ccc(C(F)(F)F)cc4F)C(C)C)C[C@@H]3C)nc3nncn3c2n1C[C@@H]1CCCO1` [Example 71, 4-((2S,5R)-4-((S)-1-(2-Fluoro-4-(trifluoromethyl)phenyl)-2-methylpropyl)-2,5-dimethylpiperazin-1-yl)-2-methyl-1-(((S)-tetrahydrofuran-2-yl)methyl)-1H-[1,2,4]triazolo[3,4-b]purine], the pIC50 on DGKα and on DGKζ was not below 7.70 each time.
On to `CC[C@H]1CN(C(c2ccc(F)cc2)c2ccc(F)cc2)[C@H](CC)CN1c1nc2nncn2c2c1ncn2CCN(C)C` [Example 35, 2-(4-((2S,5R)-4-(Bis(4-fluorophenyl)methyl)-2,5-diethylpiperazin-1-yl)-1H-[1,2,4]triazolo[3,4-b]purin-1-yl)-N,N-dimethylethan-1-amine], for which the negative logarithm of the IC50 (pIC50) at DGKα and on DGKζ was not below 7.70 each time.
For `Cc1nc2c(N3C[C@@H](C)N(C(c4ccc(Br)c(F)c4)C4CC(F)(F)C4)C[C@@H]3C)nc3nncn3c2n1C[C@@H]1CCCO1` (stereo partly drawn) [Example 63, 4-((2S,5R)-4-((4-Bromo-3-fluorophenyl)(3,3-difluorocyclobutyl)methyl)-2,5-dimethylpiperazin-1-yl)-2-methyl-1-(((S)-tetrahydrofuran-2-yl)methyl)-1H-[1,2,4]triazolo[3,4-b]purine], the negative logarithm of the IC50 (pIC50) at DGKα and at DGKζ was not below 7.70 in each case.
For `Cc1nc2c(N3C[C@@H](C)N([C@H](c4cccc(F)c4)C(C)C)C[C@@H]3C)nc3nncn3c2n1C[C@@H]1CCCO1` [Example 94, 4-((2S,5R)-4-((S)-1-(3-Fluorophenyl)-2-methylpropyl)-2,5-dimethylpiperazin-1-yl)-2-methyl-1-(((S)-tetrahydrofuran-2-yl)methyl)-1H-[1,2,4]triazolo[3,4-b]purine], the pIC50 on DGKα and at DGKζ was not below 7.70 throughout.
Regarding `C[C@@H]1CN(c2nc3nncn3c3c2ncn3CCN(C)C)[C@@H](C)CN1C(c1ccc(Cl)cc1)c1ccc(Cl)cc1` [Example 107, 2-(4-((2S,5R)-4-(Bis(4-chlorophenyl)methyl)-2,5-dimethylpiperazin-1-yl)-1H-[1,2,4]triazolo[3,4-b]purin-1-yl)-N,N-dimethylethan-1-amine], the negative logarithm of the IC50 (pIC50) at DGKα and at DGKζ was not below 7.70 each time.
As for `C[C@@H]1CN(c2nc3nncn3c3scnc23)[C@@H](C)CN1C(c1ccc(F)cc1)c1ccc(F)cc1` [Example 1, 4-((2S,5R)-4-(Bis(4-fluorophenyl)methyl)-2,5-dimethylpiperazin-1-yl)thiazolo[4,5-e][1,2,4]triazolo[4,3-a]pyrimidine], the pIC50 was not below 7.70 at DGKα and 6.70 to 7.70 at DGKζ.
The corresponding values for `COc1ccc([C@H](C(C)C)N2C[C@H](C)N(c3nc4nncn4c4c3nc(C)n4C[C@@H]3CCCO3)C[C@H]2C)cc1` [Example 77, 4-((2S,5R)-4-((S)-1-(4-Methoxyphenyl)-2-methylpropyl)-2,5-dimethylpiperazin-1-yl)-2-methyl-1-(((S)-tetrahydrofuran-2-yl)methyl)-1H-[1,2,4]triazolo[3,4-b]purine] are not below 7.70 and not below 7.70.
The corresponding values for `Cc1nc2c(N3C[C@@H](C)N(C(c4ccc(C(F)(F)F)c(Cl)c4)C4CC(F)(F)C4)C[C@@H]3C)nc3nncn3c2n1C[C@@H]1CCCO1` (stereo partly drawn) [Example 58, 4-((2S,5R)-4-((3-Chloro-4-(trifluoromethyl)phenyl)(3,3-difluorocyclobutyl)methyl)-2,5-dimethylpiperazin-1-yl)-2-methyl-1-(((S)-tetrahydrofuran-2-yl)methyl)-1H-[1,2,4]triazolo[3,4-b]purine] are not below 7.70 and not below 7.70.
`Cc1nc2c(N3C[C@@H](C)N(C(c4ccc(C(F)F)c(F)c4)C4CC(F)(F)C4)C[C@@H]3C)nc3nncn3c2n1C[C@@H]1CCCO1` (stereo partly drawn) [Example 135, 4-((2S,5R)-4-((3,3-Difluorocyclobutyl)(4-(difluoromethyl)-3-fluorophenyl)methyl)-2,5-dimethylpiperazin-1-yl)-2-methyl-1-(((S)-tetrahydrofuran-2-yl)methyl)-1H-[1,2,4]triazolo[3,4-b]purine]: the negative-log IC50 (pIC50) at DGKα and at DGKζ was not below 7.70 in each case.
For the compound `Cc1nc2c(N3C[C@@H](C)N([C@H](c4ccc(Br)cc4)C(C)C)C[C@@H]3C)nc3nncn3c2n1C[C@@H]1CCCO1` [Example 138, 4-((2S,5R)-4-((S)-1-(4-Bromophenyl)-2-methylpropyl)-2,5-dimethylpiperazin-1-yl)-2-methyl-1-(((S)-tetrahydrofuran-2-yl)methyl)-1H-[1,2,4]triazolo[3,4-b]purine], the negative-log IC50 (pIC50) at DGKα and on DGKζ was not below 7.70 in each case.
As to `Cc1nc2c(N3C[C@@H](C)N(C(c4ccc(C(F)(F)F)c(Cl)c4)C(C)C)C[C@@H]3C)nc3nncn3c2n1C[C@@H]1CCCO1` (stereo partly drawn) [Example 85, 4-((2S,5R)-4-(1-(3-Chloro-4-(trifluoromethyl)phenyl)-2-methylpropyl)-2,5-dimethylpiperazin-1-yl)-2-methyl-1-(((S)-tetrahydrofuran-2-yl)methyl)-1H-[1,2,4]triazolo[3,4-b]purine], the pIC50 on DGKα and on DGKζ was not below 7.70 each time.
Consider `Cc1nc2c(N3C[C@@H](C)N([C@@H](c4ccc(C(F)F)cc4)C(C)C)C[C@@H]3C)nc3nncn3c2n1C[C@@H]1CCCO1` [Example 74, 4-((2S,5R)-4-((R)-1-(4-(difluoromethyl)phenyl)-2-methylpropyl)-2,5-dimethylpiperazin-1-yl)-2-methyl-1-(((S)-tetrahydrofuran-2-yl)methyl)-1H-[1,2,4]triazolo[3,4-b]purine], for which the negative-log IC50 (pIC50) on DGKα and on DGKζ was not below 7.70 throughout.
For the compound `Cc1nc2c(N3C[C@@H](C)N(C(c4ccc(F)c(Cl)c4)[C@H]4C[C@H](C(F)(F)F)C4)C[C@@H]3C)nc3nncn3c2n1C[C@@H]1CCCO1` (stereo partly drawn) [Example 113, 4-((2S,5R)-4-((3-Chloro-4-fluorophenyl)((trans)-3-(trifluoromethyl)cyclobutyl)methyl)-2,5-dimethylpiperazin-1-yl)-2-methyl-1-(((S)-tetrahydrofuran-2-yl)methyl)-1H-[1,2,4]triazolo[3,4-b]purine], the negative logarithm of the IC50 (pIC50) on DGKα and at DGKζ was not below 7.70 throughout.
As for `Cc1nc2c(N3C[C@@H](C)N(C(c4ccc(F)c(Cl)c4)C4CC(F)(F)C4)C[C@@H]3C)nc3nncn3c2n1C[C@@H]1CCCO1` (single isomer, unassigned) [Example 44], the negative-log IC50 (pIC50) on DGKα and at DGKζ was not below 7.70 each time.
`Cc1nc2c(N3C[C@@H](C)N(C(c4ccc(C(F)(F)F)cc4)c4ccc(C(F)(F)F)cc4)C[C@@H]3C)nc3nncn3c2n1C[C@@H]1CCCO1` [Example 134, 4-((2S,5R)-4-(Bis(4-(trifluoromethyl)phenyl)methyl)-2,5-dimethylpiperazin-1-yl)-2-methyl-1-(((S)-tetrahydrofuran-2-yl)methyl)-1H-[1,2,4]triazolo[3,4-b]purine]: the pIC50 on DGKα and at DGKζ was not below 7.70 in each case.
On to `Cc1nc2c(N3C[C@@H](C)N([C@@H](c4ccc(Cl)c(Cl)c4)C4CC(F)(F)C4)C[C@@H]3C)nc3nncn3c2n1C[C@@H]1CCCO1` [Example 49, 4-((2S,5R)-4-((R)-(3,4-dichlorophenyl)(3,3-difluorocyclobutyl)methyl)-2,5-dimethylpiperazin-1-yl)-2-methyl-1-(((S)-tetrahydrofuran-2-yl)methyl)-1H-[1,2,4]triazolo[3,4-b]purine], for which the negative-log IC50 (pIC50) at DGKα and at DGKζ was not below 7.70 in each case.
